Measurements as given in paper PMC10647059, “Molecular Determinants of EphA2 and EphB2 Antagonism Enable the Design of Ligands with Improved Selectivity” (Journal of Chemical Information and Modeling, 2023).

Experiments:
[1] = Rat liver microsome stability assay; assay type: in vitro ADME; settings: liver microsomes, pH 7.4, 60 min at 37 °C, NADPH-generating system, read-out: compound recovery at 60 min in rat liver microsomes
Description: Experiments were performed as previously described.[59]

[2] = target: T1, EphA2 (Mus musculus, UniProt Q03145); assay: Surface plasmon resonance, steady-state analysis on immobilized EphA2-Fc; assay type: binding; settings: EphA2-Fc on CM4 sensorchip; ± standard deviation; read-out: KD (SPR, steady-state)
Description: Increasing concentrations of the two compounds were injected over EphA2-Fc immobilized on the surface of a CM SPR4 sensorchip and evaluated for their interaction.
Surface plasmon resonance (SPR) measurements were performed on a BIAcore X100 instrument, using a carboxyl-methyl-dextran-coated sensorchip (CM4, GE-Healthcare).

[3] = target: T1, EphA2; assay: ELISA binding assay: displacement and saturation of biotinylated ephrin-A1-Fc on immobilized EphA2-Fc
Description: Compounds were added to the wells at proper concentrations in 0.5% DMSO and incubated at 37 °C for 1 h. Biotinylated ephrin-A1-Fc was added at 37 °C for 4 h. Data are the means of three independent experiments ± standard deviation.
The day after, wells were washed with a washing buffer (PBS 0.05% tween20, pH 7.5) and blocked with a blocking buffer solution (PBS 1% BSA) for 1 h at 37 °C. Compounds were added to the wells at a proper concentration in 0.5% DMSO and incubated at 37 °C for 1 h. […] After 4 h for displacement assays or 5 h for saturation studies, wells were washed and incubated with 100 μL/well Streptavidin-HRP (Sigma S5512) for 20 min at room temperature. Then, wells were washed again with a washing buffer and incubated at room temperature with 0.1 mg/mL tetramethylbenzidine (Sigma T2885) reconstituted in stable peroxide buffer (0,05 M citric acid +0,05 M dibasic sodium phosphate, pH 5). The reaction was quenched with 3 N HCl. Absorbance was read at 450 nm (ELISA plate reader). The IC50 and Ki values were determined using one-site competition nonlinear regression analysis with Prism software (GraphPad Software Inc.).

[4] = Rat plasma stability assay; settings: 60 min at 37 °C, 1 μM
Description: Pooled plasma (400 μL) was incubated at 37 °C in the presence of 10 mM phosphate-buffered saline (PBS) pH 7.4. 5 μL of compound stock solution in DMSO (final DMSO concentration: 1%; final compound concentration: 1 μM) was added to start the rat plasma stability assay. […] At fixed time points, aliquots of 50 μL were taken, added with two volumes of CH3CN containing as internal standard the structural analogue UniPR126, centrifuged (16,000g, 5 min, 4 °C), and analyzed by HPLC-ESI-MS/MS. The responses (i.e., peak area ratios of test compound vs internal standard) were referred to the zero time-point samples (considered as 100%) to determine the percentage of remaining compound vs time.

[5] = test system: U251 GBM cell line; assay: MTT cell viability/proliferation assay on U251 glioblastoma cell line; assay type: cell-based; settings: 30 μM, continuous exposure, time course vs control DMSO 0.3%
Description: Figure 12 reports the time course of cell growth compared to the control (DMSO 0.3% solution) in the presence of a compound concentration of 30 μM. […] Although additional investigations will be required to confirm this promising behavior, it could be speculated that the higher antiproliferative activity of UniPR1449 compared to that of […], and the reference antagonist UniPR1331, is due to its peculiar pharmacological profile at the level of Eph receptors.
Data are the means of at least three independent experiments ± standard deviation.
Figure S10. Cell viability assay performed using a MTT assay on U251 glioblastoma cell line treated with the approved drug temozolomide and the reference compound UniPR1331.

[6] = physchem; settings: pH 7.4
Description: Distribution coefficients (D) were measured at physiological pH by the shake-flask method at room temperature (21.0 ± 0.5 °C), employing n-octanol/50 mM MOPS buffer pH 7.4, 0.15 M KCl ionic strength as a biphasic solvent system, after mutual saturation by overnight stirring. A weighed amount of compound was dissolved in water-saturated n-octanol, a buffer was added, and the sample was stirred for 4 h to reach partition equilibrium. Partition phases were centrifuged (9000g, 10 min, 20 °C), separated, diluted with methanol, and dosed by HPLC-ESI-MS/MS.

[7] = target: T2, EphB2 (Mus musculus, UniProt P54763); assay: ELISA binding assay: displacement and saturation of biotinylated ephrin-B1-Fc on immobilized EphB2; settings: data not shown
T2 sequence (P54763 19-543): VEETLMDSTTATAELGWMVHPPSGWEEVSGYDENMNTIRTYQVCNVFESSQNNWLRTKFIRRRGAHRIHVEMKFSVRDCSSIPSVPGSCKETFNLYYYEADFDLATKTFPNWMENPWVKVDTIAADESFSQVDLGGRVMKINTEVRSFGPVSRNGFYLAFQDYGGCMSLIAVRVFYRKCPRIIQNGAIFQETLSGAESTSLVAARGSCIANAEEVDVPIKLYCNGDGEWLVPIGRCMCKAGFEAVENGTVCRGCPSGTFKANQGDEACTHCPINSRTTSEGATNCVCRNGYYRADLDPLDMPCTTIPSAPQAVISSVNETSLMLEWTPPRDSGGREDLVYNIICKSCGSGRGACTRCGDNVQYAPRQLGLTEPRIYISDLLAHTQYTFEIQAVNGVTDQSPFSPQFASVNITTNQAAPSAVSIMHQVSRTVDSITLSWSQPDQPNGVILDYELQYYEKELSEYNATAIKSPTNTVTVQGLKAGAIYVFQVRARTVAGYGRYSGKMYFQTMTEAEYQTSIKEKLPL

T1 sequence (Q03145 with tags, fused parts or gaps limits assumed): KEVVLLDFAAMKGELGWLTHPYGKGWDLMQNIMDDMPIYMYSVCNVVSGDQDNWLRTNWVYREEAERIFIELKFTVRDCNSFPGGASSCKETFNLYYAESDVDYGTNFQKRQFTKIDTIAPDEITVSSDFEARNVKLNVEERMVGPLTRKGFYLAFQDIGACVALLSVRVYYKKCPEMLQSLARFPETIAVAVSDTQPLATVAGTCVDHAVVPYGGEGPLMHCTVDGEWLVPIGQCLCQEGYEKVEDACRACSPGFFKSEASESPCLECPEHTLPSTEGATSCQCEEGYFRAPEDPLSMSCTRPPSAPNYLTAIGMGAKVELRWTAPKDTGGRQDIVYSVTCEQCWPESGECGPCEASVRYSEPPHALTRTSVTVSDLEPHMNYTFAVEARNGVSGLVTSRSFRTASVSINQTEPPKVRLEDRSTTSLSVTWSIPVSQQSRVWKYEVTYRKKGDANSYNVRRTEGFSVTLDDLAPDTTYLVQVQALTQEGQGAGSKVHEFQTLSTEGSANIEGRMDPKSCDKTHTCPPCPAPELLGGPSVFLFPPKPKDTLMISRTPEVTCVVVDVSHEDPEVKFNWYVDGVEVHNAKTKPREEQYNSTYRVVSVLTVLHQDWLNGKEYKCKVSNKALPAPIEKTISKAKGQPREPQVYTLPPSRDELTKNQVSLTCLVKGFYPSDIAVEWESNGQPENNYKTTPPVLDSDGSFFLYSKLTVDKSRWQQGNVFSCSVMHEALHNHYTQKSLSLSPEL

| SMILES | remaining at 60 min, 1 μM [1] | Kd [2] | reversibility of binding to EphA2 ([3]; 50 μM compound, with or without washing three times with PBS before ephrin-A1-Fc) | Ki ([3]; read-out: Ki for EphA2 (saturation curves of ephrin-A1-Fc, nonlinear regression)) | stability in rat plasma [4] | effect on U251 cell growth (MTT) [5] | logD at 4 h [6] | reversibility of binding to EphB2 [7] |
| --- | --- | --- | --- | --- | --- | --- | --- | --- |
| CC(CCC(=O)NC(CC(=O)O)Cc1cn(S(=O)(=O)c2ccccc2)c2ccccc12)C1CCC2C3CC=C4CC(O)CCC4(C)C3CCC12C [UniPR1449, N-(3β-hydroxy-Δ^5-cholen-24-oyl)-1-benzensulfonyl-L-β-homotryptophan] | 62.2% | 3.8 ± 2.4 µM | reversible | 2.2 µM | stable | fully blocked GBM growth | 4.7 ± 0.11 | – |
| C[C@H](CCC(=O)N[C@H](CC(=O)O)Cc1c[nH]c2ccccc12)[C@H]1CCC2C3CC=C4C[C@@H](O)CC[C@]4(C)C3CC[C@@]21C (stereo partly drawn) [UniPR1447, N-(3β-hydroxy-Δ^5-cholen-24-oyl)-L-β-homotryptophan] | 40.3% | – | – | – | stable | did not significantly affect U251 growth | 4.6 ± 0.1 | fully reversible |
